Results taken from patent US20240350643A1, “PROTEIN DEGRADATION AGENT” (SUZHOU KINTOR PHARMACEUTICALS, INC., priority 2021, published 2024).
Where two headings read alike, the source gives them in different places.

Tests used:
HL60 cells = assay: Anti-proliferation ability of compounds on HL60 cells (CTG); type: cell-based, human; settings: 3 days, CellTiter-Glo, read-out: HL60 cells Proliferation inhibitory activity
Procedure: II. Activity test 2: Anti-proliferation ability of compounds on HL60 cells: 1 Cell plating
HL60 cells in the logarithmic growth phase were counted and plated evenly in a 96-well transparent bottom white plate at 20000 cells per well and 100 μL per well.
A certain amount of the compounds was weighed and diluted with DMSO to a 10 mM stock solution. The culture mediums corresponding to the cells were taken, and the drugs were diluted to the concentration required by the test, shaken gently and mixed evenly. 50 μl of the gradient dilution of the diluted compound was added to each well of the plated cells, and 50 μL of 0.1% DMSO was added to the control group. The plate was shaken gently, mixed evenly and incubated in a cell culture incubator for 3 days.
• 3.1 The CellTiter-GLo™ (CTG) reagent was taken in advance from the −20° C. refrigerator and equilibrated to room temperature in the dark (white bottle+brown bottle, 1:1 mixing evenly into the brown bottle, for later use). • 3.2 The 96-well plate was taken out and inspected under a microscope for growth situation. • 3.3 The bottom of the 96-well plate was tagged with white paper, and then the plate was wrapped with tin foil paper, shaken at 37° C. at 300 r for 10 min and mixed evenly. • 3.4 50 ul of CTG detection reagent was added to each well, Luminescence signal was detected using a microplate reader, and the inhibition rate was calculated. IC50 values of the compounds were calculated by XLfit software to evaluate the proliferation inhibitory activity on HL60 cells.

c-Myc protein = target: T1, c-Myc protein (Homo sapiens, UniProt P01106); assay: Ability of compounds to degrade c-Myc protein in HL60 cells (ELISA); type: cell-based; settings: HL-60, 1 μM compound, 24 h, read-out: HL60 cells Protein degradation rate (1 μM)
T1 construct: endogenous in cells; host or cells: HL60 cells
T1 sequence (P01106 whole entry): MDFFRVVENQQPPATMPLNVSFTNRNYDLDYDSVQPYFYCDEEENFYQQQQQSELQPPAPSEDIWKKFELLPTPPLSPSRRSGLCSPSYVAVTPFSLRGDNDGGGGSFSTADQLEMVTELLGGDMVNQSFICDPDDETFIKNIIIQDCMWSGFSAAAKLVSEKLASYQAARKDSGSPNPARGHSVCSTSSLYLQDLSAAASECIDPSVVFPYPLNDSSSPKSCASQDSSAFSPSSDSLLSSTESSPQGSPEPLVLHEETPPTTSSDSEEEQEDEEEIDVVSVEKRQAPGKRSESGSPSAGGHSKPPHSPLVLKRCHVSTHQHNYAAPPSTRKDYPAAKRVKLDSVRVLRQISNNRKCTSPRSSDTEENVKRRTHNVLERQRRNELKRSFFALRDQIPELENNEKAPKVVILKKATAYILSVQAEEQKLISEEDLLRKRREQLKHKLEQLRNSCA
Procedure: I Activity test 1: Ability of compounds to degrade c-Myc protein in HL60 cells:
HL60 cells in the exponential growth phase were centrifuged, diluted with fresh culture mediums to 6×10^4 cells/100 μL and plated into a 96-well plate at 100 μL per well.
Preparation of test compounds: the compounds were weighed and diluted with DMSO to a 10 mM stock solution for later use. According to test requirements, drugs were diluted with cell culture mediums, with ten-fold dilutions starting from 10 μM, to achieve 3 concentration gradients: 10 μM, 1 μM and 100 NM; and finally, 1 μL of the drugs (DMSO content: 0.01%) were added to each well. For the blank control group, DMSO was also diluted with cell culture mediums, and finally, 1 μL of the control reagent (DMSO content: 0.01%) was added to each well.
3. Effect of drugs on c-Myc in cells as determined by ELISA
After 24 h of drug action, the culture mediums were removed, and the cells were washed once with ice-cold 1× PBS. PBS was removed, and 100 μL of ice-cold 1× Cell Lysis Buffer plus 1 mM phenylmethylsulfonyl fluoride (PMSF) was added to each well. The plate was incubated on ice for 20 min and centrifuged at 4000 RPM at 4° C. for 10 min for later use.
4. Reagent and antibody preparation in ELISA kit 1× wash buffer • 1). 16 mL of ELISA wash buffer concentrate (25×) was diluted with 384 mL of deionized water or distilled water, labeled as 1× Wash Buffer. • 2). The concentrate and 1× Wash Buffer were stored in the refrigerator. The diluted buffer was used within 14 days.
The cell extraction buffer contains 10 mM Tris (pH 7.4), 100 mM NaCl, 1 mM EDTA, 1 mM EGTA, 1 mM NaF, 20 mM Na4P2O7 2 mM Na3VO4. 1% Triton™ ×-100, 10% glycerol, 0.1% SDS and 0.5% deoxycholate. Immediately before use, PMSF (0.3 M stock solution in DMSO) was added to the buffer to a final concentration of 1 mM.
Standard curve configuration: The standard liquid was diluted using glass or plastic tubes. • 1). Huc-Myc (total) standard liquid (Invitrogen, KH02041) was reconstituted with a standard dilution to 1000 pg/mL. Refer to the standard vial label for instructions. The contents were gently swirled or mixed and then allowed to stand for 10 minutes to ensure complete reconstitution, labeled as 1,000 pg/mL human c-Myc. The standard liquid was used within 1 hour after reconstitution. • 2). 250 μL of standard dilution buffers were added to 7 test tubes respectively labeled 500, 250, 125, 62.5, 31.25, 15,63 and 0 pg/mL. • 3). 250 μL of the 1000 pg/ml standard stock solution was added to the first EP tube to a concentration of 500 pg/mL, vortexed and mixed evenly. 250 μL of the resulting mixture was further pipetted and added to the second EP tube to a concentration of 250 pg/mL. Serial dilutions were performed until the sixth EP tube with a concentration of 15.63 pg/mL. Dilution was not performed on the last EP tube. • 4). The remaining reconstituted standard liquid should be discarded, or aliquoted and frozen at −80° C. for further use. Standards can be frozen and thawed only once without losing immunoreactivity.
1× anti-rabbit IgG HRP solution: 1× anti-rabbit IgG HRP solution was prepared within 15 minutes of use. The anti-rabbit IgG HRP (100×) contained 50% viscous glycerol. To ensure accurate dilutions, the following operations were carried out: 1 For each 8-well test strip used in the test, 10 μl, of the anti-rabbit IgG -IRP (100×) solution was pipetted, wherein the pipette tip was wiped with clean absorbent paper to remove excess solutions, and then the solution was dispensed into a test tube containing 1 mL of HRP diluent and mixed thoroughly. 2. The unused anti-rabbit IgG HRP (100×) was placed in the refrigerator for storage.
50 μL of the standard liquid was added to the appropriate wells and not added to the blank control well. Except for the blank control well, 50 μL of Hu c-Myc (total) detection antibody solution was added to each well and mixed by tapping the side face of the plate. […]

IC50 (HL60 cells; Homo sapiens, HL-60, 72 h) [nM] | inhibition at 1 µM (c-Myc protein) [%] | IC50 (HL60 cells) [nM] | Compound
6.3 ± 3 | 60 to 90 |  | O=C(Cc1cccc2ccccc12)NCc1ccc(CNC(=O)c2ccc3c(c2)C(=O)N(C2CCC(=O)NC2=O)C3=O)cc1C(F)(F)F (centres unmarked) [A121]
83.1 | 60 to 90 |  | O=C1CCC(N2C(=O)c3ccc(C(=O)NCc4ccc(CN(CCc5cccc6ccccc56)C5CC5)cc4)cc3C2=O)C(=O)N1 (centres unmarked) [A88]
32.1 ± 1.3 | 60 to 90 |  | O=C(Cc1nccc2ccccc12)NCc1ccc(CNCc2ccc3c(c2)C(=O)N(C2CCC(=O)NC2=O)C3=O)cc1 (centres unmarked) [A186]
2 ± 1 | 60 to 90 |  | CN(CCc1cccc2ccccc12)Cc1ccc(CNCc2ccc3c(c2)C(=O)N(C2CCC(=O)NC2=O)C3=O)cc1 (centres unmarked) [A181]
3 ± 0.6 | 60 to 90 |  | O=C(Cc1cccc2ccc(F)cc12)NCc1ccc(CNC(=O)c2ccc3c(c2)CN(C2CCC(=O)NC2=O)C3=O)cc1 (centres unmarked) [A155]
13.1 ± 6.2 | 60 to 90 |  | CN(CCn1c2ccccc2c2cccnc21)Cc1ccc(CNC(=O)c2ccc3c(c2)C(=O)N(C2CCC(=O)NC2=O)C3=O)cc1 (centres unmarked) [A84]
< 3 | 60 to 90 |  | O=C(Cc1cccc2cccnc12)NCc1ccc(CC(=O)Nc2ccc3c(c2)CN(C2CCC(=O)NC2=O)C3=O)cc1 (centres unmarked) [A173]
1 |  |  | CC(C)(C)C(=O)OCN1C(=O)CCC(N2Cc3cc(C(=O)NCc4ccc(CNC(=O)Cn5c6ccccc6c6cccnc65)cc4)ccc3C2=O)C1=O (centres unmarked) [A226]
12 ± 4.4 | 60 to 90 |  | COCCN(CCn1c2ccccc2c2cccnc21)Cc1ccc(CNC(=O)c2ccc3c(c2)C(=O)N(C2CCC(=O)NC2=O)C3=O)cc1 (centres unmarked) [A91]
0.4 | 60 to 90 |  | CN(CCc1ccc(Cl)c(Cl)c1)Cc1ccc(CNC(=O)c2ccc3c(c2)C(=O)N(C2CCC(=O)NC2=O)C3=O)cc1 (centres unmarked) [A101]
61.6 ± 21 | 60 to 90 |  | O=C1CCC(N2C(=O)c3ccc(C(=O)NCc4ccc(CNC(=O)Nc5cccc6ccccc56)cc4)cc3C2=O)C(=O)N1 (centres unmarked) [A45]
6.5 ± 0.3 | 60 to 90 |  | O=C1CCC(N2C(=O)c3ccc(C(=O)NCc4ccc(C5(NC(=O)Cc6cccc7ccccc67)CC5)cc4)cc3C2=O)C(=O)N1 (centres unmarked) [A141]
289 ± 48.3 | 60 to 90 |  | O=C1CCC(N2C(=O)c3ccc(C(=O)NCc4ccc(CN(CCc5cccc6ccccc56)c5ccccc5)cc4)cc3C2=O)C(=O)N1 (centres unmarked) [A94]
186 ± 67 |  |  | O=C(Cn1c2ccccc2c2cccnc21)NCc1ccc(C2(NC(=O)c3ccc4c(c3)CN(C3CCC(=O)NC3=O)C4=O)CC2)cn1 (centres unmarked) [A215]
0.5 ± 0.2 |  |  | CN(CCn1c2ccccc2c2cccnc21)Cc1ccc(CC(=O)Nc2ccc3c(c2)CN(C2CCC(=O)NC2=O)C3=O)cc1 (centres unmarked) [A206]
11.8 ± 1.2 |  |  | O=C1CCC(N2Cc3cc(C(=O)NCc4ccc(CN(CCc5cccc6ccccc56)CCc5cccc6ccccc56)cc4)ccc3C2=O)C(=O)N1 (centres unmarked) [A230]
3.3 ± 0.8 |  |  | O=C(Cn1c2ccccc2c2cccnc21)NCc1ccc(CC(=O)Nc2ccc3c(c2F)CN(C2CCC(=O)NC2=O)C3=O)c(C(F)(F)F)c1 (centres unmarked) [A218]
 | 30 to 60 |  | O=C(Cn1c2ccccc2c2ccncc21)NCCCCCCNC(=O)c1ccc2c(c1)C(=O)N(C1CCC(=O)NC1=O)C2=O (centres unmarked) [A3]
0.2 |  |  | O=C(Cn1c2ccccc2c2cccnc21)NCc1ccc(CNC(=O)c2ccc3c(c2)CN(C2CCC(=O)NC2=O)C3=O)c(OC(F)(F)F)c1 (centres unmarked) [A207]

IC50 (HL60 cells; Homo sapiens, HL-60, 72 h) [nM] | inhibition at 1 µM (c-Myc protein) [%] | IC50 (HL60 cells) [nM] | Compound
5.2 ± 1.4 |  |  | O=C1CCC(N2Cc3cc(C(=O)NCc4ccc(C5(NC(=O)Cn6c7ccccc7c7cccnc76)CC5)cn4)ccc3C2=O)C(=O)N1 (centres unmarked) [A214]
3.6 ± 1.8 |  |  | N#Cc1cc(CNC(=O)Cn2c3ccccc3c3cccnc32)ccc1CNC(=O)c1ccc2c(c1)CN(C1CCC(=O)NC1=O)C2=O (centres unmarked) [A210]
5.4 ± 1.9 |  |  | O=C(Cn1c2ccccc2c2cccnc21)NCc1ccc(C2(NC(=O)c3ccc4c(c3)CN(C3CCC(=O)NC3=O)C4=O)CC2)cc1 (centres unmarked) [A213]
< 3.04 |  |  | O=C1CCC(N2Cc3cc(C(=O)NCc4ccc(CN(CCO)CCc5ccc(Cl)c(Cl)c5)cc4)ccc3C2=O)C(=O)N1 (centres unmarked) [A233]
0.6 ± 0.2 |  |  | O=C(Cn1c2ccccc2c2cccnc21)NCc1ccc(CNC(=O)c2cc3c(cc2F)C(=O)N(C2CCC(=O)NC2=O)C3)cc1 (centres unmarked) [A222]
7.8 ± 2 |  |  | O=C(Cn1c2ccccc2c2cccnc21)NCc1ccc(CC(=O)Nc2cc3c(cc2F)C(=O)N(C2CCC(=O)NC2=O)C3)c(C(F)(F)F)c1 (centres unmarked) [A219]
17.8 ± 1.9 |  |  | O=C1CCC(N2Cc3cc(C(=O)NC[C@H]4CC[C@H](NC(=O)NCc5cccc6ccccc56)CC4)ccc3C2=O)C(=O)N1 (some centres unmarked) [A198]
0.71 ± 0.04 |  |  | O=C1CCC(N2Cc3cc(C(=O)NCc4ccc(CN(CCO)CCc5cccc6ccccc56)cc4)ccc3C2=O)C(=O)N1 (centres unmarked) [A234]
3.5 ± 1.1 |  |  | O=C(Cn1c2ccccc2c2cccnc21)NCc1ccc(C2(NC(=O)c3ccc4c(c3)CN(C3CCC(=O)NC3=O)C4=O)CC2)cc1F (centres unmarked) [A216]
0.7 ± 0.4 |  |  | O=C(Cn1c2ccccc2c2cccnc21)NCc1ccc(CNC(=O)c2ccc3c(c2F)CN(C2CCC(=O)NC2=O)C3=O)cc1 (centres unmarked) [A223]
6.4 ± 2.7 |  |  | O=C(CN1CCCc2cccnc21)NCc1ccc(CNC(=O)c2ccc3c(c2)CN(C2CCC(=O)NC2=O)C3=O)cc1 (centres unmarked) [A202]
0.6 |  |  | Cc1cc(CNC(=O)Cn2c3ccccc3c3cccnc32)ccc1CNC(=O)c1ccc2c(c1)CN(C1CCC(=O)NC1=O)C2=O (centres unmarked) [A217]
6.3 ± 1.2 |  |  | O=C(Cn1c2ccccc2c2cccc(CO)c21)NCc1ccc(CNC(=O)c2ccc3c(c2)C(=O)N(C2CCC(=O)NC2=O)C3=O)cc1 (centres unmarked) [A236]
 |  | 0.9 | O=C(Cn1c2ccccc2c2cccnc21)NCc1ccc(CNC(=O)c2ccc3c(c2)CN(C2CCC(=O)NC2=O)C3=O)c(C(F)(F)F)c1 (centres unmarked) [A209]
< 3.04 |  |  | O=C1CCC(N2Cc3cc(C(=O)NCc4ccc(CNCCc5cccc6ccccc56)cc4)ccc3C2=O)C(=O)N1 (centres unmarked) [A231]
1.5 ± 0.1 |  |  | O=C1CCC(N2Cc3cc(C(=O)NCc4ccc(C5(NC(=O)Cn6c7ccccc7c7cccnc76)CC5)cc4)ccc3C2=O)C(=O)N1 (centres unmarked) [A212]
< 3.04 |  |  | N#Cc1cccc2c3ccccc3n(CC(=O)NCc3ccc(CNC(=O)c4ccc5c(c4)CN(C4CCC(=O)NC4=O)C5=O)cc3)c12 (centres unmarked) [A229]
13.3 ± 1 |  |  | N#Cc1cc(CNC(=O)Cn2c3ccccc3c3cccnc32)ccc1CC(=O)Nc1ccc2c(c1)CN(C1CCC(=O)NC1=O)C2=O (centres unmarked) [A211]
0.54 |  |  | O=C1CCC(N2Cc3cc(C(=O)NCc4ccc(CN(CCc5cccc6ccccc56)C(=O)CO)cc4)ccc3C2=O)C(=O)N1 (centres unmarked) [A232]
